Values quoted from earlier work as cited in US20230143731A1, “NANOMATERIALS FOR TARGETED TREATMENT OF PULMONARY TISSUE” (The University of North Carolina at Chapel Hill, priority 2020, published 2023).

Test system: ACE
Conditions: with and without the C-terminal serine

| Substance | ACE inhibition [%] |
| --- | --- |
| TPTQQ [TPTQQ peptide] | 26 |
| TPTQQS | 73 |
